Reference: patent publication US20140294991A1, “MEDICAMENT FOR TREATING ANTERIOR EYE DISEASE COMPRISING REBAMIPIDE AND A TEAR-RETAINING AGENT” (OTSUKA PHARMACEUTICAL CO., LTD., priority 2011, published 2014)

Tested on: tear deficient rat model
Assay: Tear volume by Schirmer's test in capsaicin-induced tear deficient rat model
Type: in vivo, Wister/ST rat
Conditions: Pharmacological Experiment 3; repeated administration test; compared with non-treated group (FIG. 5)
Protocol: To evaluate the utility of a combination of rebamipide and a tear-retaining agent or an artificial tear, rebamipide and sodium hyaluronate were administrated in combination to a tear deficient rat model, and the tear volume was measured and the corneal epithelial damage was evaluated. The tests were carried out in single administration and repeated administration.
Capsaicin (50 mg/kg) was administered to a 4-day-old Wister/ST rat, and 4 weeks later the rat was used as a tear deficient rat model.
For the single administration test, 5 μl of each drug solution for one eye was topically administrated to the rats of the “2% rebamipide-treated” group, “0.1% sodium hyaluronate-treated” group, and “2% rebamipide+0.1% sodium hyaluronate-treated” group. For the combination administration, 0.1% sodium hyaluronate was administrated 5 minutes after the administration of 2% rebamipide.
For the repeated administration test, 5 μl of each drug solution for one eye was topically administrated to the rats of the “2% rebamipide-treated” group (4 times/day), “0.1% sodium hyaluronate-treated” group (6 times/day), and “2% rebamipide (4 times/day)+0.1% sodium hyaluronate (6 times/day)-treated” group. […]
The tear volumes were measured as an index of a tear-retention capacity by Schirmer's test.

For O=C(NC(Cc1cc(=O)[nH]c2ccccc12)C(=O)O)c1ccc(Cl)cc1 (stereo not shown) [rebamipide, 2-(4-chlorobenzoylamino)-3-[2(1H)-quinolin-4-yl]propionic acid], the “tear volume (tear-retention capacity)” value was “significantly higher”.
